14 molecules from patent US20240270724A1, “GALECTIN-3 INHIBITING C-GLYCOSIDES” (GLYCOMIMETICS, INC., priority 2021, published 2024) can be followed below.

Each structure is given as a SMILES string.

In one assay the target is T1, galectin-3 (Homo sapiens, UniProt P17931).
T1 construct: purchased IBL IBATGP0414
As to the kind of experiment: Galectin-3 activity ELISA assay: inhibition of galectin-3 binding to immobilized Galβ1-3GlcNAc polymer. Conditions: inhibition of galectin-3 binding to Galβ1-3GlcNAc polymer, average (± standard deviation) where assayed more than once. The text has this:
An inhibition assay may be used to screen for antagonists of galectin-3. For example, an assay may be performed to characterize the capability of a compound described herein to inhibit interaction of galectin-3 with a Galβ1-3GlcNAc carbohydrate structure. The inhibition assay may be a competitive binding assay, which allows the determination of IC50 values. By way of example, a Galβ1-3GlcNAc polymer may be immobilized onto a matrix; a composition may be added to reduce nonspecific binding; the immobilized Galβ1-3GlcNAc polymer may be contacted with the candidate compound in the presence of galectin-3 group under conditions and for a time sufficient to permit galectin-3 to bind to the immobilized Galβ1-3GlcNAc polymer; the immobilized Galβ1-3GlcNAc polymer may be washed; and the amount of galectin-3 bound to the immobilized Galβ1-3GlcNAc polymer may be detected. Variations of such steps can be readily and routinely accomplished by a person of ordinary skill in the art.
Galectin-3 antagonists were evaluated for their ability to inhibit binding of galectin-3 to a Galβ1-3GlcNAc carbohydrate structure. The detailed protocol was as follows. A 1 μg/mL suspension of a Galβ1-3GlcNAcβ1-3Galβ1-4GlcNAcβ-PAA-biotin polymer (Glycotech, catalog number 01-096) was prepared. A 100 μL aliquot of the polymer was added to the wells of a 96-well streptavidin-coated plate (R&D Systems, catalog number CP004). A 100 μL aliquot of 1× Tris Buffered Saline (TBS, Sigma, catalog number T5912-10X) was added to control wells. The polymer was allowed to bind to the streptavidin-coated wells for 1.5 hours at room temperature. The contents of the wells were discarded, and 200 μL of 1×TBS containing 1% bovine serum albumin (BSA) was added to each well as a blocking reagent and the plate was kept at room temperature for 30 minutes. The wells were washed three times with 1×TBS containing 0.1% BSA. A serial dilution of test compounds was prepared in a separate V-bottom plate (Corning, catalog number 3897). A 75 μL aliquot of the highest concentration of the compound to be tested was added to the first well in a column of the V-bottom plate, then 15 μL were serially transferred into 60 μL 1×TBS through the remaining wells in the column to generate a 1 to 5 serial dilution. A 60 μL aliquot of 2 μg/mL galectin-3 (IBL, catalog number IBATGP0414) was added to each well in the V-bottom plate. A 100 μL aliquot of the galectin-3 test compound mixture was transferred from the V-bottom plate into the assay plate containing the Galβ1-3GlcNAc polymer. Four sets of control wells in the assay plate were prepared in duplicate containing 1) both Galβ1-3GlcNAc polymer and galectin-3, 2) neither the polymer nor galectin-3, 3) galectin-3 only, no polymer, or 4) polymer only, no galectin-3. The plate was gently rocked for 1.5 hours at room temperature. The wells were washed four times with TBS/0.1% BSA. A 100 μL aliquot of anti-galectin-3 antibody conjugated to horse radish peroxidase (R&D Systems, from DGAL30 kit) was added to each well, and the plate was kept at room temperature for 1 hour. The wells were washed four times with TBS/0.1% BSA. A 100 μL aliquot of TMB substrate solution was added to each well. The TMB substrate solution was prepared by making a 1:1 mixture of TMB Peroxidase Substrate (KPL, catalog number 5120-0048) and Peroxidase Substrate Solution B (KPL, catalog number 5120-0037). The plate was kept at room temperature for 10 to 20 minutes. The color development was stopped by adding 100 uL 10% phosphoric acid (RICCA Chemical Co., catalog number 5850-16). The absorbance at 450 nm (A450) was measured using a FlexStation 3 plate reader (Molecular Devices). Plots of A450 versus test compound concentration and IC50 determinations were made using GraphPad Prism 6. The number of assays run (n) for each compound is recorded in the following table.
For orientation: ELISA stands for enzyme-linked immunosorbent assay.

The target of assay [1] is T2, carbohydrate recognition domain of human galectin-3 (Galectin-3-CRD) (Homo sapiens, UniProt P17931).
T2 construct: The carbohydrate recognition domain of human galectin-3 (Servesto Galectin-3-CRD) was diluted; purchased Servesto
Description: Galectin-3 activity microscale thermophoresis assay. As to conditions: label-free MST, 20 nM galectin-3-CRD; average of all assays (± standard deviation), each assay in triplicate. The class given is binding. As for the experimental part:
The carbohydrate recognition domain of human galectin-3 (Servesto Galectin-3-CRD) was diluted with PBS+0.1% F127 to 40 nM. Separately, a 40 uM stock of Compound 45 in DMSO was diluted down to 4 uM in PBS+0.1% F127 and serially diluted in sixteen steps using a dilution factor of 1 to 2 in 10% DMSO+PBS+0.1% F127. To each sample in the serial dilution of Compound 45, 10 ul of 40 nM Galectin-3-CRD was added, yielding final concentrations of 20 nM galectin-3-CRD and 5% DMSO+PBS+0.1% F127. NT.LabelFree Zero background Standard Treated Capillaries were filled with the prepared solutions then loaded into the Monolith NT Label-Free MST instrument. The reaction was measured with 100% excitation power of LED and medium (40%) MST power. Binding curves and Kd values were generated using MO affinity analysis. Each assay was run in triplicate. Some compounds were subjected to more than one assay run in triplicate.
Background: Microscale thermophoresis detects binding through changes in fluorescence in a small temperature gradient.

T2 sequence (P17931 118-248 limits assumed): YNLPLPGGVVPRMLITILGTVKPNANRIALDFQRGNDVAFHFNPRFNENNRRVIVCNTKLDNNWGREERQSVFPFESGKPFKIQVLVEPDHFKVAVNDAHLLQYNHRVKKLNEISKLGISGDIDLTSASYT
T1 sequence (P17931 whole entry): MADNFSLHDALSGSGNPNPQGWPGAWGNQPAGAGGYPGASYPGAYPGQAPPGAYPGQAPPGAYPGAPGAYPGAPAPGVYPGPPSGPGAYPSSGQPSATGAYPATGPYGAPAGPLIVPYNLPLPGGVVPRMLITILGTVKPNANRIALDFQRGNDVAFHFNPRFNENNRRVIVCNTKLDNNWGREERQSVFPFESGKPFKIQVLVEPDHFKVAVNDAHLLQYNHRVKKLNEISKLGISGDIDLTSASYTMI

In turn, `COC1C(n2cc(-c3cc(F)c(F)c(F)c3)nn2)[C@@H](O)C(CO)O[C@H]1[C@H](OCc1ccc(Br)cc1)C(=O)N[C@@H](C)CF` (stereo partly shown) [Compound 71] yielded an IC50 at galectin-3 of 0.526 µM. Moreover, the dissociation constant (Kd) in assay [1] was 0.009 µM.
The matching figures for `COC1C(n2cc(-c3cc(F)c(F)c(F)c3)nn2)[C@@H](O)C(CO)O[C@H]1[C@H](OCc1ccc(Br)cc1)C(=O)NC(CF)CF` (stereo partly shown) [Compound 72]: 0.197 µM and 0.009 µM.
As to `COC1C(n2cc(-c3cc(F)c(F)c(F)c3)nn2)[C@@H](O)C(CO)O[C@H]1[C@H](OCc1ccc(Br)cc1)C(=O)N[C@@H](C)C(F)(F)F` (stereo partly shown) [Compound 73], at galectin-3, the IC50 stood at 0.182 µM. Further, binding in assay [1] was put at a Kd of 0.008 µM.
The matching figures for `[2H]C([2H])([2H])OC1C(n2cc(-c3cc(F)c(F)c(F)c3)nn2)[C@@H](O)C(CO)O[C@H]1[C@H](OCc1ccc(Br)cc1)C(=O)NC(C)(C)CO` (stereo partly shown) [Compound 74]: 0.216 µM and 0.02 µM.
For `[2H]C([2H])([2H])OC1C(n2cc(-c3cc(F)c(F)c(F)c3)nn2)[C@@H](O)C(CO)O[C@H]1[C@H](OCc1ccc(Br)cc1)C(=O)NC1(CO)CC1` (stereo partly shown) [Compound 75] the same measures were 0.938 µM and 0.021 µM.
`COC1C(n2cc(-c3cc(F)c(F)c(F)c3)nn2)[C@@H](O)C(CO)O[C@H]1[C@H](OCc1ccc(Br)cc1)C(=O)O` (stereo partly shown) [Compound 76] returned an IC50 at galectin-3 of 0.47 µM. In assay [1], the dissociation constant (Kd) amounted to 0.031 µM.
In turn, `COC1C(n2cc(-c3cc(F)c(F)c(F)c3)nn2)[C@@H](O)C(CO)O[C@H]1[C@H](OCc1ccc(Cl)cc1)C(=O)N(C)C` (stereo partly shown) [Compound 83, reference compound] registered an IC50 at galectin-3 of 2.91 µM. In assay [1], this molecule came in with a Kd of 0.57 µM.
In the case of `CNC(=O)[C@@H](OCc1ccc(Cl)cc1)[C@@H]1OC(CO)[C@H](O)C(n2cc(-c3cc(F)c(F)c(F)c3)nn2)C1OC` (stereo partly shown) [Compound 84, reference compound], the IC50 at galectin-3 came out at 0.386 µM. In assay [1], this molecule returned a Kd of 0.018 µM.
For `COCCCNC(=O)[C@@H](OCc1ccc(Cl)cc1)[C@@H]1OC(CO)[C@H](O)C(n2cc(-c3cc(F)c(F)c(F)c3)nn2)C1OC` (stereo partly shown) [Compound 85, reference compound] the same measures were 0.397 µM and 0.012 µM.
The matching figures for `CC(C)OC(=O)[C@@H](OCc1ccc(Cl)cc1)[C@@H]1OC(CO)[C@H](O)C(n2cc(-c3cc(F)c(F)c(F)c3)nn2)C1O` (stereo partly shown) [Compound 86, reference compound]: 0.184 µM and 0.0004 µM.
For `COC1C(n2cc(-c3cc(F)c(F)c(F)c3)nn2)[C@@H](O)C(CO)O[C@H]1[C@H](OCc1ccc(Cl)cc1)C(=O)OC(C)C` (stereo partly shown) [Compound 87, reference compound] the same measures were 0.724 µM and 0.02 µM.
The molecule `[2H]C([2H])([2H])OC1C(n2cc(-c3cc(F)c(F)c(F)c3)nn2)[C@@H](O)C(CO)O[C@H]1[C@H](OCc1ccc(Cl)cc1)C(=O)NC(C)C` (stereo partly shown) [Compound 88, reference compound] registered a half-maximal inhibitory concentration (IC50) at galectin-3 of 0.416 µM. The same molecule had a Kd in assay [1] of 0.067 µM.
For `COC1C(n2cc(-c3cc(F)c(F)c(F)c3)nn2)[C@@H](O)C(CO)O[C@H]1[C@H](OCc1ccc(Cl)cc1)C(=O)NC(C)C` (stereo partly shown) [Compound 89, reference compound] the same measures were 0.427 µM and 0.07 µM.
Molecule `[2H]C([2H])([2H])OC1C(n2cc(-c3cc(F)c(F)c(F)c3)nn2)[C@@H](O)C(CO)O[C@H]1[C@H](OCc1ccc(Cl)c(F)c1)C(=O)NC(C)C` (stereo partly shown) [Compound 90, reference compound] showed a concentration for half-maximal inhibition (IC50) at galectin-3 of 1.19 µM. In addition, in assay [1], the affinity, expressed as Kd, was 0.025 µM.

Usually IC50 stands for the midpoint of a concentration-inhibition curve. Usually Kd stands for the concentration at which binding is half-saturated. Low readings indicate higher affinity, high ones lower affinity.
